Data on 4 molecules can be found in patent publication US20260102501A1, “ANTI-CANCER NUCLEAR HORMONE RECEPTOR-TARGETING COMPOUNDS” (Nuvation Bio Inc., priority 2022, published 2026).

One assay relates to IEC6 cells. The assay can be described thus: Cell viability assay (CellTiterGlo). Particulars: Rattus norvegicus, IEC-6, 144 h, read-out: IEC-6 (IC50, nM). On the technique in general: Cellular ATP, detected with luciferase, serves as a proxy for viable cell number.
The target of assay [1] is T1, GR (cytosol from IM-9 cells) (Homo sapiens, UniProt P04150).
T1 sequence (P04150 1-777): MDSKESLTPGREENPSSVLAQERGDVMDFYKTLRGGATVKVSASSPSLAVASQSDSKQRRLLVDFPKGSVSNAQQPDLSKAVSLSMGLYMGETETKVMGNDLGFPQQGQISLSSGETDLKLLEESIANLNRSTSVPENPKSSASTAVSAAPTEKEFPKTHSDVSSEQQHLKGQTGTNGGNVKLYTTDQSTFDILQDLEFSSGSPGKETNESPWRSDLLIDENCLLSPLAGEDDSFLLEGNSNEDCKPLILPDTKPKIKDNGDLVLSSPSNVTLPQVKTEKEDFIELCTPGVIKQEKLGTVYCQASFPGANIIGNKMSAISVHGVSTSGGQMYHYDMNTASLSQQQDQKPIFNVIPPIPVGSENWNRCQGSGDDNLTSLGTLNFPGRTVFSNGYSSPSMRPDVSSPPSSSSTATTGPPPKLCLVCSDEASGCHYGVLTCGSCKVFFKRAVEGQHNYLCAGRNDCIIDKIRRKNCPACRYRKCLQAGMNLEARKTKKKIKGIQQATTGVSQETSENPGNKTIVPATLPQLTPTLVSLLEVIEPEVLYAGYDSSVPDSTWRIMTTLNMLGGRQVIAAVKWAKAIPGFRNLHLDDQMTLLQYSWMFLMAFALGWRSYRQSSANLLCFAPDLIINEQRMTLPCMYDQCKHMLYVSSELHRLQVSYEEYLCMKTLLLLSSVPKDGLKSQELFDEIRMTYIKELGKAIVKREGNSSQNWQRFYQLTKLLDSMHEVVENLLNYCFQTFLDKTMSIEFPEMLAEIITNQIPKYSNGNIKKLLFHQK
The assay can be described thus: GR binding assay (3H-Dexamethasone displacement).

In assay [2] the target is T2, Progesterone PR-B receptors from human breast carcinoma T47D cells (Homo sapiens, UniProt P06401).
T2 sequence (P06401 1-933): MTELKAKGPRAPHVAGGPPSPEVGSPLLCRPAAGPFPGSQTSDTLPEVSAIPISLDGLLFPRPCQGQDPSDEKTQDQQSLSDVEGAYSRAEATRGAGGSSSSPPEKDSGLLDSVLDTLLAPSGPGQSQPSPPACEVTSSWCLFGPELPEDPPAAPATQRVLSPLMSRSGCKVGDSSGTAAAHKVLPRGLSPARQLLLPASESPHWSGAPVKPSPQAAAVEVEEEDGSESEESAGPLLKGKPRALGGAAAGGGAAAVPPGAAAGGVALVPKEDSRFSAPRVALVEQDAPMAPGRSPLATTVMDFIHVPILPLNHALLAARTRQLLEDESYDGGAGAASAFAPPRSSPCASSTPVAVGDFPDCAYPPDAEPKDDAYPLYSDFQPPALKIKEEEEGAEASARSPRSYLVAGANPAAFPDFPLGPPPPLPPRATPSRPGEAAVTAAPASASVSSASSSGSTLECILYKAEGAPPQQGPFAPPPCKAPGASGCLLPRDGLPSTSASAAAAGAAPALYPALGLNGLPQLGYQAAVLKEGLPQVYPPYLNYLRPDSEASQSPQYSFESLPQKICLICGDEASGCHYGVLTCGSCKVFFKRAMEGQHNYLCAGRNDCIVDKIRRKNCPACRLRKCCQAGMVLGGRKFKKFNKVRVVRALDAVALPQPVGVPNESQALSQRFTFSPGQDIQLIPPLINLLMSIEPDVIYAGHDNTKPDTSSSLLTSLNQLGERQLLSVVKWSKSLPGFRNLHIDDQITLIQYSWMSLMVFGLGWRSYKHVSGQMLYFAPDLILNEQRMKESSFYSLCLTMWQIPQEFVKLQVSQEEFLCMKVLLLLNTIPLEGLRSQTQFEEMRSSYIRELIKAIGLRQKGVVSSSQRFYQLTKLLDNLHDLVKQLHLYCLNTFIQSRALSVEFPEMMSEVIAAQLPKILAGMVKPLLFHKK
Description: PR binding assay ([3H] Progesterone displacement).

Assay [3] has as its target T3, full-length androgen receptor (HEK293 cells stably expressing) (Homo sapiens, UniProt P10275).
T3 sequence (P10275 1-920): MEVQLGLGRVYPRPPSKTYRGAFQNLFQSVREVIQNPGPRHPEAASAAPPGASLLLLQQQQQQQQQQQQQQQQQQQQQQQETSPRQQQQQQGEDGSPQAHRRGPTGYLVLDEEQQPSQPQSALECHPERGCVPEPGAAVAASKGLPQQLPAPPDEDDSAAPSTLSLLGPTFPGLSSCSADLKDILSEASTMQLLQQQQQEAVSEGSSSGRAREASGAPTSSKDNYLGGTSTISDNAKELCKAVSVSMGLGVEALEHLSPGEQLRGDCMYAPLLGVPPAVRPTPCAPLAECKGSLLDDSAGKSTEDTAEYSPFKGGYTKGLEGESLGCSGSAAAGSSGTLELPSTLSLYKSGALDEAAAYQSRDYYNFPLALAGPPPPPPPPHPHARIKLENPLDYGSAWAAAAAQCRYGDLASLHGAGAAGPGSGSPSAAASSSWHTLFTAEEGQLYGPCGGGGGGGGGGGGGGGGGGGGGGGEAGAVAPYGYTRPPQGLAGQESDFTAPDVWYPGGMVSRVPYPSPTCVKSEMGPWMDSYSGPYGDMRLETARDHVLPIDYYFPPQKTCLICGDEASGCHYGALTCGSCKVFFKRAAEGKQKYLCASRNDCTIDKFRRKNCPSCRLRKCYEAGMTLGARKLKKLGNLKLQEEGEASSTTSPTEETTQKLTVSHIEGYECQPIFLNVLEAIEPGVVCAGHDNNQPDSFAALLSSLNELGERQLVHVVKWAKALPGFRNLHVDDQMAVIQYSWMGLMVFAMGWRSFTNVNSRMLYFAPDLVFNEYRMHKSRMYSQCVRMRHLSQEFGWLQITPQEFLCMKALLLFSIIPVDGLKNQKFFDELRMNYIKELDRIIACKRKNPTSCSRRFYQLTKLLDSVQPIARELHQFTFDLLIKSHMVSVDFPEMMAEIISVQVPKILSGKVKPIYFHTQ
Description: AR antagonism assay (luciferase reporter). Background: In a reporter assay the amount or activity of a reporter protein is the signal.

The structures appear in SMILES notation.

In general, IC50 refers to the concentration that gives 50% inhibition. With `CC[C@@]1(O)C(=O)OCc2c1cc1n(c2=O)Cc2c-1nc1cc(F)c(C)c3c1c2[C@@H](N(C)C(=O)COCC1CCN(CCCCCCCN(C)c2ccc([C@H]4C[C@@]5(C)[C@@H](CC[C@]5(OC(C)=O)C(C)=O)[C@@H]5CCC6=CC(=O)CCC6=C54)cc2)CC1)CC3` [Compound 55, (8S,11R,13S,14S,17R)-17-acetyl-11-(4-((7-(4-((2-(((1S,9S)-9-ethyl-5-fluoro-9-hydroxy-4-methyl-10,13-dioxo-2,3,9,10,13,15-hexahydro-1H,12H-benzo[de]pyrano[3′,4′:6,7]indolizino[1,2-b]quinolin-1-yl)(methyl)amino)-2-oxoethoxy)methyl)piperidin-1-yl)heptyl)(methyl)amino)phenyl)-13-methyl-3-oxo-2,3,6,7,8,11,12,13,14,15,16,17-dodecahydro-1H-cyclopenta[a]phenanthren-17-yl acetate], the concentration for half-maximal inhibition (IC50) in the assay with IEC6 cells was > 1000 nM; in assay [1], < 10 nM; in assay [2], < 10 nM; in assay [3] it was 101 to 1000 nM.

Regarding `CC[C@@]1(O)C(=O)OCc2c1cc1n(c2=O)Cc2cc3c(CN(C)C)c(OCC4CCN(C(=O)CN(C)c5ccc([C@H]6C[C@@]7(C)[C@@H](CC[C@]7(OC(C)=O)C(C)=O)[C@@H]7CCC8=CC(=O)CCC8=C76)cc5)CC4)ccc3nc2-1` [Compound No. 19, (8S,11R,13S,14S,17R)-17-Acetyl-11-(4-((2-(4-((((S)-10-((dimethylamino)methyl)-4-ethyl-4-hydroxy-3,14-dioxo-3,4,12,14-tetrahydro-1H-pyrano[3′,4′:6,7]indolizino[1,2-b]quinolin-9-yl)oxy)methyl)-piperidin-1-yl)-2-oxoethyl)(methyl)amino)phenyl)-13-methyl-3-oxo-2,3,6,7,8,11,12,13,14,15,16,17-dodeca-hydro-1H-cyclopenta[a]phenanthren-17-yl acetate], the IC50 with IEC6 cells is > 1000 nM; in assay [1], < 10 nM; in assay [2], < 10 nM; in assay [3] it was > 1000 nM.

With `CC[C@@]1(O)C(=O)OCc2c1cc1n(c2=O)Cc2c-1nc1cc(F)c(C)c3c1c2[C@@H](NC(=O)COCCCCCCN(C)c1ccc([C@H]2C[C@@]4(C)[C@@H](CC[C@]4(OC(C)=O)C(C)=O)[C@@H]4CCC5=CC(=O)CCC5=C42)cc1)CC3` [Compound No. 47, (8S,11R,13S,14S,17R)-17-acetyl-11-(4-((6-(2-(((1S,9S)-9-ethyl-5-fluoro-9-hydroxy-4-methyl-10,13-dioxo-2,3,9,10,13,15-hexahydro-1H,12H-benzo[de]pyrano [3′,4′:6,7]indolizino[1,2-b]quinolin-1-yl)amino)-2-oxoethoxy)hexyl)(methyl)amino)phenyl)-13-methyl-3-oxo-2,3,6,7,8,11,12,13,14,15,16,17-dodecahydro-1H-cyclopenta[a]phenanthren-17-yl acetate], the IC50 in the assay on IEC6 cells is 101 to 1000 nM; in assay [1], < 10 nM; in assay [2], < 10 nM; in assay [3], 10 to 100 nM.

Consider `CC[C@@]1(O)C(=O)OCc2c1cc1n(c2=O)Cc2c-1nc1cc(F)c(C)c3c1c2[C@@H](NCC1CCN(CC2CCN(C(=O)CN(C)c4ccc([C@H]5C[C@@]6(C)[C@@H](CC[C@]6(OC(C)=O)C(C)=O)[C@@H]6CCC7=CC(=O)CCC7=C65)cc4)CC2)CC1)CC3` [Compound No. 51, (8S,11R,13S,14S,17R)-17-acetyl-11-(4-((2-(4-((4-((((1S,9S)-9-ethyl-5-fluoro-9-hydroxy-4-methyl-10,13-dioxo-2,3,9,10,13,15-hexahydro-1H,12H-benzo[de]pyrano[3′,4′:6,7]indolizino[1,2-b]quinolin-1-yl)amino)methyl)piperidin-1-yl)methyl)piperidin-1-yl)-2-oxoethyl)(methyl)amino)phenyl)-13-methyl-3-oxo-2,3,6,7,8,11,12,13,14,15,16,17-dodecahydro-1H-cyclopenta[a]phenanthren-17-yl acetate], for which the half-maximal inhibitory concentration (IC50) is 101 to 1000 nM in the assay on IEC6 cells, 10 to 100 nM in assay [1], < 10 nM in assay [2] and 10 to 100 nM in assay [3].
